Results from patent US7700584B2 (Hangzhou Minsheng Pharmaceuticals Co., Ltd., priority 2004, dated 2010).

Columns and labels:
Assay type in all cases: cell-based
Settings in all cases: 50 μg/ml
[1] = test system: Bel-7402 human hepatic carcinoma; test: In vitro inhibition rate to tumor cells (MTT), Bel-7402
Description: (§1) (1) Single cell suspension was seeded into 96-well plates (×3) (the cells was diluted in the PRMI-1640 minimum medium to 3×10^4 cells/ml, […] diluted cells/well). […] The experiments were performed in quadruplicate.
(§2) (2) The medium was removed. Solutions of the anti-tumor agents (15 compounds) were prepared in a freshly prepared medium at the concentrations indicated in the following Table. […] of the solution was added into each well. Incubation was continued for 48 hours.
(§3) (3) […] of 2 mg/ml MTT was added into each well, and incubated for 4 hours.
(§4) (4) The medium was removed from the well. The microplates were swiftly turned down to throw-off the medium. […] DMSO was added into each well, and vortexed at room temperature for 10 minutes.
(§5) (5) OD value (λ=570 nm) was measured with an Enzyme-Linked Detector.
(§6) (6) The inhibition rates (IR) of cell growth were respectively calculated based on the following equation: IR(%)=[1−(average OD of the experimental group/average OD of the control group)]×100%

[2] = test system: U-937 human histocytic lymphoma; test: In vitro inhibition rate to tumor cells (MTT), U-937
Description: as §1, §2, §3, §4, §5, §6

[3] = test system: HL-60 human promyelocytic leukemia; test: In vitro inhibition rate to tumor cells (MTT), HL-60
Description: as §1, §2, §3, §4, §5, §6

[4] = test system: MCF-7 human mammary adenocarcinoma; test: In vitro inhibition rate to tumor cells (MTT), MCF-7
Description: as §1, §2, §3, §4, §5, §6

[5] = test system: A-549 human lung adenocarcinoma; test: In vitro inhibition rate to tumor cells (MTT), A-549
Description: as §1, §2, §3, §4, §5, §6

[6] = test system: Hela human cervical carcinoma; test: In vitro inhibition rate to tumor cells (MTT), Hela
Description: as §1, §2, §3, §4, §5, §6

[7] = test system: LLC mouse Lewis lung carcinoma; test: In vitro inhibition rate to tumor cells (MTT), LLC
Description: as §1, §2, §3, §4, §5, §6

[8] = test system: SMMC-7721 human hepatic carcinoma; test: In vitro inhibition rate to tumor cells (MTT), SMMC-7721
Description: as §1, §2, §3, §4, §5, §6

| SMILES | inhibition rate, Results (%) Bel-7402 ([1]; Table 1) [%] | inhibition rate, Results (%) Bel-7402 ([1]; Table 2 (repeated screening)) [%] | inhibition rate, Results (%) U-937 ([2]; Table 1) [%] | inhibition rate, Results (%) U-937 ([2]; Table 2 (repeated screening)) [%] | inhibition rate, Results (%) HL-60 ([3]; Table 1) [%] | inhibition rate, Results (%) HL-60 ([3]; Table 2 (repeated screening)) [%] | inhibition rate, Results (%) MCF-7 ([4]; Table 1) [%] | inhibition rate, Results (%) MCF-7 ([4]; Table 2 (repeated screening)) [%] | inhibition rate, Results (%) A-549 ([5]; Table 1) [%] | inhibition rate, Results (%) A-549 ([5]; Table 2 (repeated screening)) [%] | inhibition rate, Results (%) Hela ([6]; Table 1) [%] | inhibition rate, Results (%) Hela ([6]; Table 2 (repeated screening)) [%] | inhibition rate, Results (%) LLC ([7]; Table 1) [%] | inhibition rate, Results (%) LLC ([7]; Table 2 (repeated screening)) [%] | inhibition rate, Results (%) SMMC-7721 ([8]; Table 1) [%] | inhibition rate, Results (%) SMMC-7721 ([8]; Table 2 (repeated screening)) [%] |
| --- | --- | --- | --- | --- | --- | --- | --- | --- | --- | --- | --- | --- | --- | --- | --- | --- |
| C=C1CC2(OC(C)=O)OC3(CC2C(C)C)C(C)CCC13 (stereo not drawn) [Compound 1, Curcumol acetate] | 32.12 | 25.32 | 45.45 | 34.26 | 23.12 | 12.03 | 45.6 | 41.02 | −9.16 | −6.32 | 51.23 | 55.98 | 1.30 | 1.30 | 23.10 | 28.23 |
| CC(C)C1CC23OC1(O)CC(=CO)C2CCC3C (stereo not drawn) [Compound 18, Curcumol monohydroxy compound] | 13.58 | 11.23 | 70.30 | 69.23 | 4.26 | 7.32 | 57.89 | 54.32 | −2.24 | −0.32 | 60.32 | 65.03 | 4.18 | 0.22 | 13.39 | 0.69 |
| C=CC(=O)OC12CC(=C)C3CCC(C)C3(CC1C(C)C)O2 (stereo not drawn) [Compound 22, Curcumol acrylate] | 12.80 | 0.23 | 60.32 | 50.23 | 21.01 | 21.03 | 88.32 | 85.02 | 19.23 | 12.36 | 63.20 | 61.88 | −6.01 | −6.41 | 44.39 | 40.32 |
| COC12CC(=CBr)C3CCC(C)C3(CC1C(C)C)O2 (stereo not drawn) [Compound 26, Curcumol methyl ether bromide] | 3.45 | −3.45 | 55.32 | 54.23 | −0.23 | −0.23 | 43.21 | 41.21 | −3.24 | −3.12 | 51.00 | 56.55 | 11.77 | −11.77 | 0.97 | −0.97 |
| CCCCNC=C1CC2(OC)OC3(CC2C(C)C)C(C)CCC13 (stereo not drawn) [Compound 27, Curcumol methyl ether n-butyl amine] | 4.65 | 2.31 | 52.98 | 50.98 | 3.19 | 5.969 | 23.78 | 14.36 | 15.01 | 5.23 | 62.31 | 60.21 | −10.89 | −10.00 | 25.94 | 20.36 |
| CCCCNC=C1CC2(OC)OC3(CC2C(C)C)C(C)CCC13.Cl (stereo not drawn) [Compound 28, Curcumol methyl ether n-butyl amine hydrochloride] | −2.24 | −0.45 | 59.32 | 51.23 | 2.98 | 4.32 | 32.15 | 19.98 | 1.23 | 2.31 | 58.75 | 60.45 | 0.24 | 1.23 | −3.78 | −1.02 |
| CCOC12CC(=CO[N+](=O)[O-])C3CCC(C)C3(CC1C(C)C)O2 (stereo not drawn) [Compound 29, Curcumol ethyl ether nitrate] | 2.51 | 3.21 | 25.32 | 12.32 | 42.12 | 42.79 | 37.85 | 30.12 | 3.89 | 1.23 | 56.98 | 50.17 | −10.12 | −1.95 | 4.26 | 5.68 |
| CC(C)C1CC23OC1(O)CC(Br)(CBr)C2CCC3C (stereo not drawn) [Compound 30, Curcumol dibromide] | 12.40 | 9.84 | 13.25 | 13.10 | 13.20 | 4.12 | 36.15 | 30.56 | 4.36 | 4.01 | 53.87 | 56.89 | −1.83 | −4.65 | 1.03 | 4.56 |
| CC(C)C1CC23OC1(O)CC(CO[N+](=O)[O-])(O[N+](=O)[O-])C2CCC3C (stereo not drawn) [Compound 31, Curcumol dinitrate] | 0.23 | 8.42 | −0.68 | −12.61 | 16.50 | 2.78 | 16.75 | 14.87 | 8.65 | 4.82 | 57.98 | 55.49 | 1.13 | 1.25 | −1.96 | −4.56 |
